The text below walks through data of patent publication US10626058B2, “Urea ammonium sulphate-based composition and method for the manufacture thereof” (YARA INTERNATIONAL ASA, priority 2015, dated 2020).

Each structure is given as a SMILES string. Like-named read-outs stand apart in the source and are kept apart here.

The format of the data set is physicochemical. The following applies: for effect of added alkaline compound on stability of nBTPT on UAS: UAS+500 ppm nBTPT powder+2350 ppm rapeseed oil, 12 days open to air storage at 30° C. in an oven; for half-life time for nBTPT: stored in bags at room temperature (20-25° C.). Here is the method: For lab scale experiments, 1.2 kg of solid fertilizer material was added to a lab scale drum. In a next step, the nBTPT material was slowly added. A residence time of 10 minutes was applied and the rotating speed of the drum was consequently the same in each experiment. In case a moisture repellent coating was added, a nebulizer was used and depending on the order of addition, the moisture repellent coating was added before or after addition of the nBTPT material. Before use, the moisture repellent coating was preheated to 80° C. Larger scale experiments with amounts up to 40 kg of fertilizer material were performed in a concrete mixer.
The samples were stored under several conditions, dependent on the type of samples: • 20° C. closed plastic container with head space (Climate chamber, 80% relative humidity) • Bagged at room temperature (20-25° C.) or in nissenhut • Open to air in nissenhut • Cylinder test in nissenhut • Open pile in nissenhut
For some samples, an accelerated stability test was done storing these samples at elevated temperatures: • Oven of 30° C. closed plastic container • Oven of 30° C. open to air • 30° C./60% RH open to air • 70° C. closed plastic container
Typically, a day/night cycle is generated in the nissenhut, with temperature fluctuations between 0 to 42° C. and fluctuations of relative humidity between 20 and 90%, which can be compared with real life storage in silos.
HPLC analysis of nBTPT is done as described in the procedure CEN 15688-2007.

As to `O=C([O-])[O-].[Ca+2]` [calcium carbonate], the “effect of added alkaline compound on stability of nBTPT on UAS” value (from here on “effect of added alkaline compound”) is reported as “stabilizing effect”.

As to `[O]=[Ca]` [calcium oxide], the “effect of added alkaline compound” value was “stabilizing effect”. Also, the “effect of added calcium oxide on stability of nBTPT on UAS” value (500-2350 ppm calcium oxide, UAS+500 ppm nBTPT powder, 8 days open to air at nissenhut (16-42° C./27-77% relative humidity)) was “large stabilizing effect”.

Consider `CCCCNP(N)(N)=S` [nBTPT, N-(n-butyl) thiophosphoric triamide], for which, for the setting “7 days in closed plastic containers with head space at 20° C./80% relative humidity, FIG. 10”, the “effect of moisture repellent coating and of solid particulate form on stability of nBTPT on UAS” value is “beneficial effect”. For the same molecule, the “effect of calcium oxide addition and of solid particulate form on stability of nBTPT on UAS” value (16 days in bags at nissenhut (16-42° C./27-77% relative humidity), FIG. 8) is on record as “beneficial effect”. Moreover, for the setting “16 days in nissenhut (16-42° C./27-77% relative humidity), FIG. 9”, the “effect of calcium oxide addition and of bagged storage on stability of nBTPT on UAS” value is listed as “beneficial effect”. The “effect of calcium oxide, solid particulate form, moisture repellent coating and bagged storage on stability of nBTPT on UAS” value (16 days in nissenhut (16-42° C./27-77% relative humidity), FIG. 12) is “beneficial effect”. For the setting “28 days at room temperature (20-25° C.), FIG. 11”, the “effect of solid particulate form and of bagged storage on stability of nBTPT on UAS” value is “beneficial effect”. In addition, the “effect of bagged versus open to air storage on stability of nBTPT on UAS” value (solid nBTPT (500 ppm), 28 days at room temperature (20-25° C.)) is “beneficial effect”. For the same molecule, the “half-life time for nBTPT” value is 6-12 months (solid particulate form on UAS plus alkaline or alkaline-forming compound and moisture repellent coating); “only a few days” (urease inhibitor in liquid form on UAS); “up to 4 months” (urease inhibitor in solid particulate form on UAS).

In the case of `[O]=[Zn]` [zinc oxide], the “effect of added alkaline compound” value is “best effect”.
